Key:
FLT3 = biological target: T1, FLT3 (Homo sapiens, UniProt P36888); assay: LabChip (Caliper) kinase assay, FLT3; type: biochemical; conditions: for inhibition at 0.01 µM / inhibition at 0.1 µM: FLT3, read-out: remaining kinase activity (in %) / percentage of inhibition; for inhibition at 0.01 µM: compound at 10 nM; for inhibition at 0.1 µM: compound at 100 nM; for IC50: Ftl3, ATP at Km, read-out: CI50 (the source's name)
T1 construct: purchased Upstate
T1 sequence (P36888 27-993): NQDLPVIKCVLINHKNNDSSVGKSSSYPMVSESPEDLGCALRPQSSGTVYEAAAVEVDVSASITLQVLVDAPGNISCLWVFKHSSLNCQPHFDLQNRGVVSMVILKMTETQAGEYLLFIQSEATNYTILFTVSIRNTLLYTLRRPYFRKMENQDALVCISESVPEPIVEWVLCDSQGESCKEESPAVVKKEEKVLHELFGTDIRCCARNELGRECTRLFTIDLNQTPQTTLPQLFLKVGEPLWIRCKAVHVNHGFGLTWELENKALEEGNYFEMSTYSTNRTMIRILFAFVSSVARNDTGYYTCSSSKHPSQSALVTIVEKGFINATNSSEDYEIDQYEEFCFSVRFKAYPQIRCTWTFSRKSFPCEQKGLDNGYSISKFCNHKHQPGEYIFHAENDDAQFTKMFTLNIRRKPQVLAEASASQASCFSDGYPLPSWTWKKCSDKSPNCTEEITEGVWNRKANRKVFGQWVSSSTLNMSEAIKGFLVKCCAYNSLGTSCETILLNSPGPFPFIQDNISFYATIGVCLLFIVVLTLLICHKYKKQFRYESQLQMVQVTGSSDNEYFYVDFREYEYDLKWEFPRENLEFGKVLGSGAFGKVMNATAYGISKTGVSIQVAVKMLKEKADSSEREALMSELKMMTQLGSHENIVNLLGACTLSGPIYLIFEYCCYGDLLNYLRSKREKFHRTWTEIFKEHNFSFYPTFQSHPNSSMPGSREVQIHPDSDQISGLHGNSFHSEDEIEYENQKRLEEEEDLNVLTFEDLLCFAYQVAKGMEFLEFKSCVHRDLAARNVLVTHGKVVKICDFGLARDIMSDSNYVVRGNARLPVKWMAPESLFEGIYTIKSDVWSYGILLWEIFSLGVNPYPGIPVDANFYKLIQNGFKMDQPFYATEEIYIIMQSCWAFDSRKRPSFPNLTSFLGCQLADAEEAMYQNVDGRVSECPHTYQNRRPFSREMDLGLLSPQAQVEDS
Procedure: (§1) The analysis of kinase activity described here was performed using LabChip (Caliper Life Sciences), specifically the Caliper LC3000 and the EZ Reader II instruments.
(§2) The kinase assay used measures the conversion of a fluorescent peptide (substrate) to a phosphorylated product. The reaction mixture, in a microplate well, is introduced by a capillary in a chip where the non-phosphorylated substrate and the phosphorylated product are separated by […]. The intensity of the fluorescent signal over time is related to the reaction progress. The phosphorylated product migrates quicker than the non-phosphorylated substrate and the signals of the two forms of the peptide appear as differentiated peaks. The Caliper determines the peak height and calculates the ratio of product to the peak sum (P/(P+S)). This value is used to compare wells with compounds and wells with controls and thus determine the % of inhibition for the given product.
(§3) The followings kinases were used for the enzymatic inhibition studies, between brackets the value of the Michaelis-Menten constant, Km, of the ATP (Adenosine triphosphate) for each kinase, in μM: obtained from Carna Biosciences: MAPKAPK2 (4.6), AurA (3.6), AurB (5), PKCζ (3.8), RSK1 (23.3), PRAK (5), Erk1 (33.4), PKD2 (32.1), CK1d (16.3), CHK1 (33), ABL (61.7), FYN (36), LYNa (17), CHK2 (57.8), MET (79.5), LCK (28.5), SRC (38), GSK3β (7.3), Erk2 (62.1), PKACα (1.7), AKT2 (186.1), INSR (871.8), p38a (396.5), AKT1(48), MSK1 (21.2), PKCβ2 (84.8), ROCK2 (3.3), PIM2 (4.9), AMPK (38.6), KDR (164.8), IRAK4 (196.5), SGK1 (121.8), SYK (33.5); obtained from Invitrogen: CDK2 (57.6), BTK (123), HGK (80); obtained from Upstate: MST2 (36.6), PKGα (16), PAK2 (1.9), IGF1R (320), FGFR1 (171), MARK1 (33), CAMK2δ (22.4), c-TAK1 (66), DYRK1a (18.1), CaMK4 (3.9), FLT3 (350), c-Raf (6.2), P70S6K (95).
(§4) The compounds were dissolved in 100% DMSO and were diluted at 25 times the final concentration desired for the assay. In the case of the determination of Cl50, serial dilutions were made to reach eight concentrations and give rise to the inhibition curve. 1 μL of each concentration is transferred, in duplicate to a 384-well microplate. 12 μL of enzymatic buffer is added to each well containing purified kinase (several suppliers as indicated above), 100 mM HEPES, pH 7.5, 1 mM DTT (Calbiochem), 0.002% Brij-35 (Sigma) and also in presence of 10 mM MgCl2 as cofactor, except for INSR and IRAK4 wherein 10 mM MnCl2 is used instead of MgCl2. For the kinases CAMK26 and CAMK4, 1 mM CaCl2 and 6.7 μg/mL of calmodulin are also added. For KDR kinase, 0.05% of the CHAPSO detergent is added. For the c-Raf kinase, 10 mM MnCl2 is added. For PKCβ2 0.02 μg/mL of PS/PMA is added. For PKGα se 10 μM of cGMP (cyclic guanosine monophosphate) is added. The compound and the enzyme are left for 15 minutes preincubation and, then, the following are added to each well: 12 μL of peptide buffer/ATP containing 100 mM HEPES, pH 7.5, 1.5 μM peptide marker with fluorescein (specific for the corresponding kinase), ATP (at concentration KM), and 0.002% Brij-35 to start the reaction. Generally, the reactions are incubated for 1-1.5 h at ambient temperature to obtain an adequate conversion (15-40%) of the peptide to the phosphorylated product. The reactions were ended by the addition of 45 μL of buffer containing 0 mM EDTA. The microplates were read by the LabChip 3000 using a 12-channel LabChip. The P/(P+S) values were obtained as described above and the CI50 curves were generated using XIfit.
(§5) Table 9a has the 0150 data obtained in pairs of compound-kinase selected from the compounds of formula (VII), (VIII), (IX), (XVI), (XVII) and (XVIII) after taking inhibition measurements at 100 nM and 10 nM. Those couples that provide >70% of inhibition at 10 nM were consider for measuring its IC50. […]

KDR = biological target: T2, KDR (Homo sapiens, UniProt P35968); assay: LabChip (Caliper) kinase assay, KDR; type: biochemical; conditions: for inhibition at 0.01 µM: compound at 10 nM; for inhibition at 0.01 µM / inhibition at 0.1 µM: read-out: remaining kinase activity (in %) / percentage of inhibition; for inhibition at 0.1 µM: compound at 100 nM; for IC50: ATP at Km, read-out: CI50 (the source's name)
T2 construct: purchased Carna Biosciences
Procedure: as §1, §2, §3, §4, §5

T2 sequence (P35968 20-1356): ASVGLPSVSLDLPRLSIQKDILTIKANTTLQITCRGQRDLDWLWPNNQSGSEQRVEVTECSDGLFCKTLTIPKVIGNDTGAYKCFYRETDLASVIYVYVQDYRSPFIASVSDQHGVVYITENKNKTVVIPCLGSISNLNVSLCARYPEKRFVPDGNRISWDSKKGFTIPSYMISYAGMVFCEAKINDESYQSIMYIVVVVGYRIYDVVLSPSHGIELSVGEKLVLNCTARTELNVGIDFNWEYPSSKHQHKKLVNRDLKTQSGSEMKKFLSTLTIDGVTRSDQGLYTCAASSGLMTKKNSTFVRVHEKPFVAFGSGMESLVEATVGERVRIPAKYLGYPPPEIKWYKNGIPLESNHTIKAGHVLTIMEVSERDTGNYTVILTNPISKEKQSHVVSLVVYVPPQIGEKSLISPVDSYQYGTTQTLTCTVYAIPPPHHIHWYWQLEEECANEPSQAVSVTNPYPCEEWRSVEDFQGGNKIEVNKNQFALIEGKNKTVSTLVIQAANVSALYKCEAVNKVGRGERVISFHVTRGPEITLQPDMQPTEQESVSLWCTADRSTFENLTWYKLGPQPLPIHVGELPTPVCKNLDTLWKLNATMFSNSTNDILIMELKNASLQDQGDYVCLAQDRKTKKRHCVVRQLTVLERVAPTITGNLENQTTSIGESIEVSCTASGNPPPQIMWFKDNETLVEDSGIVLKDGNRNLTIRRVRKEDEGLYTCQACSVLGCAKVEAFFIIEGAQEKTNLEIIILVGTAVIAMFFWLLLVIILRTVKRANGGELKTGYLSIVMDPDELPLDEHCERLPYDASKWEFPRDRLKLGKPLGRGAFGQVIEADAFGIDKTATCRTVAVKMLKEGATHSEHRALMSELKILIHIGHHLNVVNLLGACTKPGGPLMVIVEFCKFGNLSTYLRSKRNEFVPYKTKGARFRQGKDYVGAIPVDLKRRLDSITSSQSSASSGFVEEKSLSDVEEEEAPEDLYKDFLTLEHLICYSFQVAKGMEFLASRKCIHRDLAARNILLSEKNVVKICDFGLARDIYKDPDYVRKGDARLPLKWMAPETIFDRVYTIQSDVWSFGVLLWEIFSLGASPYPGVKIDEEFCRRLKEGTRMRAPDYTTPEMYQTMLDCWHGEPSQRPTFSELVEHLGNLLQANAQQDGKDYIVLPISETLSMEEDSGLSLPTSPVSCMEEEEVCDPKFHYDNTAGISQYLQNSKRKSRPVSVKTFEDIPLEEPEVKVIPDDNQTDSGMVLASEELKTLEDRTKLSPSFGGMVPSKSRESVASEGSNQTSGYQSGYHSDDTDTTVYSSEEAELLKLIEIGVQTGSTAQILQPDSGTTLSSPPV

Q: For `C[C@@H]1O[C@@H](n2c3ccccc3c3c4c(c5c6ccccc6[nH]c5c32)CNC4=O)[C@H](O)[C@H](O)[C@H]1O` [formula (XII), N^13-1′-β-L-rhamnosyl-k252c], which inhibition at 0.01 µM (FLT3) is on record?
A: -7%

Q: And the inhibition at 0.1 µM (FLT3)?
A: 35%

Q: And the inhibition at 0.01 µM (KDR)?
A: -1%

Q: What about the inhibition at 0.1 µM (KDR) of the same compound?
A: 6%

Q: With `C[C@@H]1O[C@@H](n2c3ccccc3c3c4c(c5c6ccccc6[nH]c5c32)C(=O)NC4=O)C[C@H](O)[C@H]1O` [formula (IV), N^13-1′-β-L-olivosylarcyriaflavin] as the compound, how does the inhibition at 0.01 µM (FLT3) read?
A: 20%

Q: And the inhibition at 0.1 µM (FLT3)?
A: 81%

Q: And the inhibition at 0.01 µM (KDR)?
A: 21%

Q: And the inhibition at 0.1 µM (KDR)?
A: 68%

Q: How did the inhibition at 0.01 µM (FLT3) turn out when `C[C@H]1O[C@@H](n2c3ccccc3c3c4c(c5c6ccccc6[nH]c5c32)C(=O)NC4=O)C[C@@H](O)[C@@H]1O` [formula (VI), N^13-1′-β-D-olivosylarcyriaflavin] was run?
A: 51%

Q: What about the inhibition at 0.1 µM (FLT3) of the same compound?
A: 98%

Q: What about the inhibition at 0.01 µM (KDR) of the same compound?
A: 2%

Q: What about the inhibition at 0.1 µM (KDR) of the same compound?
A: 40%

Q: `C[C@]12O[C@H](C[C@H](O)[C@H]1O)n1c3ccccc3c3c4c(c5c6ccccc6n2c5c31)C(=O)NC4=O` [formula (VIII), N^12-5′(S)-N^13-1′-(R)-L-olivosylarcyriaflavin] was tested. Which IC50 (FLT3) did it give?
A: 0.56 nM

Q: And the IC50 (KDR)?
A: 0.55 nM

Q: With `C[C@]12O[C@H](C[C@H](O)[C@H]1O)n1c3ccccc3c3c4c(c5c6ccccc6n2c5c31)CNC4=O` [formula (XVII), N^12-5′(S)-N^13-1′-(R)-L-olivosyl-k252c] as the compound, how does the IC50 (FLT3) read?
A: 0.54 nM

Q: Which results are given for `C[C@@H]1O[C@@H](n2c3ccccc3c3c4c(c5c6ccccc6[nH]c5c32)C(=O)NC4=O)C[C@@H](O)[C@H]1O` [formula (V), N^13-1′-β-L-digitoxosylarcyriaflavin]?
A: inhibition at 0.01 µM (FLT3): 63%; inhibition at 0.1 µM (FLT3): 95%; inhibition at 0.01 µM (KDR): 28%; inhibition at 0.1 µM (KDR): 63%

Q: With `C[C@]12O[C@H](C[C@@H](O)[C@H]1O)n1c3ccccc3c3c4c(c5c6ccccc6n2c5c31)CNC4=O` [formula (XVIII), N^12-5′(S)-N^13-1′-(R)-L-digitoxosyl-k252c] as the compound, how does the IC50 (KDR) read?
A: > 10 nM

Q: `C[C@]12O[C@H]([C@H](O)[C@H](O)[C@H]1O)n1c3ccccc3c3c4c(c5c6ccccc6n2c5c31)C(=O)NC4=O` [formula (VII), N^12-5′(S)-N^13-1′-(R)-L-rhamnosylarcyriaflavin] was tested. Which IC50 (FLT3) did it give?
A: 0.57 nM

Q: And the IC50 (KDR)?
A: 3.7 nM

Q: Which results are given for `C[C@@H]1O[C@@H](n2c3ccccc3c3c4c(c5c6ccccc6[nH]c5c32)C(=O)NC4=O)[C@H](O)[C@H](O)[C@H]1O` [formula (III), N^13-1′-β-L-rhamnosylarcyriaflavin]?
A: inhibition at 0.01 µM (FLT3): -10%; inhibition at 0.1 µM (FLT3): 25%; inhibition at 0.01 µM (KDR): -7%; inhibition at 0.1 µM (KDR): 21%

Q: For `C[C@@H]1O[C@@H](n2c3ccccc3c3c4c(c5c6ccccc6[nH]c5c32)CNC4=O)C[C@@H](O)[C@H]1O` [formula (XIV), N^13-1′-β-L-digitoxosyl-k252c], which inhibition at 0.01 µM (FLT3) is on record?
A: 20%

Q: What about the inhibition at 0.1 µM (FLT3) of the same compound?
A: 79%

Q: And the inhibition at 0.01 µM (KDR)?
A: 1%

Q: What about the inhibition at 0.1 µM (KDR) of the same compound?
A: 16%

Q: How did the inhibition at 0.01 µM (FLT3) turn out when `C[C@H]1O[C@@H](n2c3ccccc3c3c4c(c5c6ccccc6[nH]c5c32)CNC4=O)C[C@@H](O)[C@@H]1O` [formula (XV), N^13-1′-β-D-olivosyl-k252c] was run?
A: 76%

Q: What about the inhibition at 0.1 µM (FLT3) of the same compound?
A: 106%

Q: And the inhibition at 0.01 µM (KDR)?
A: -4%

Q: What about the inhibition at 0.1 µM (KDR) of the same compound?
A: 18%

Q: Which results are given for `C[C@@H]1O[C@@H](n2c3ccccc3c3c4c(c5c6ccccc6[nH]c5c32)CNC4=O)C[C@H](O)[C@H]1O` [formula (XIII), N^13-1′-β-L-olivosyl-k252c]?
A: inhibition at 0.01 µM (FLT3): 34%; inhibition at 0.1 µM (FLT3): 89%; inhibition at 0.01 µM (KDR): 7%; inhibition at 0.1 µM (KDR): 48%

Q: What does the source list for `C[C@]12O[C@H](C[C@@H](O)[C@H]1O)n1c3ccccc3c3c4c(c5c6ccccc6n2c5c31)C(=O)NC4=O` [formula (IX), N^12-5′(S)-N^13-1′-(R)-L-digitoxosylarcyriaflavin]?
A: IC50 (FLT3): 0.43 nM; IC50 (KDR): > 10 nM

Q: How did the IC50 (FLT3) turn out when `C[C@]12O[C@H]([C@H](O)[C@H](O)[C@H]1O)n1c3ccccc3c3c4c(c5c6ccccc6n2c5c31)CNC4=O` [formula (XVI), N^12-5′(S)-N^13-1′-(R)-L-rhamnosyl-k252c] was run?
A: 0.59 nM

— patent US8598132B2, “Glycosylated indolocarbazoles, method for obtaining same and uses thereof” (Universidad de Oviedo, priority 2008, dated 2013)
